Assay results taken from US20030013643A1, “Prevention and treatment of streptococcal and staphylococcal infection” (priority 2000, published 2003).

Legend:
GAS = GAS translocation through abraded human skin equivalent; format: cell-based, Streptococcus pyogenes; settings: pre-treated at 2 mg/ml for 1 hour; 4 hour infection period
Description: To examine GAS translocation in a model system similar to normal human skin, we utilized pseudo-organ cultures of human skin equivalent. This material is made by constructing a “dermis” that consists of human fibroblasts cultured in a collagen matrix; human foreskin keratinocytes are seeded on top of the dermal equivalent and cultured under conditions that promote differentiation into a stratified squamous epithelium with a stratum comeum. The histology of the human skin equivalent is very similar to that of normal human skin except for the absence of non-keratinocyte elements such as blood vessels and hematopoietic cells, nerves, and hair follicles. Since intact human skin is highly resistant to GAS infection, we simulated minor trauma to the superficial epidermis by abrading the surface of the skin equivalent with a cytology brush to introduce breaks in the stratum corneum. GAS were inoculated onto the surface of abraded skin equivalent that had either been pre-treated with nothing, HA, or AL at 2 mg/ml for 1 hour and translocation through the tissue was monitored by culture of GAS from the basal surface of the skin equivalent at intervals. As depicted in FIG. 10, HA inhibited translocation GAS by 91% (solid bars). In comparison the AL control prevented only 14% of bacteria from translocating through the skin equivalent during the 4 hour infection period. […]

[1] = system: Streptococcus pneumoniae (S. pneumo, type 6); experiment: Bacterial binding to human keratinocyte monolayers, S. pneumoniae; format: cell-based; settings: 1 mg/ml pre-incubation; multiplicity of infection 10; 1 hour
Description: Keratinocyte monolayers were prepared as descibed above in Methods section and pre-incubated with 1 mg/ml alginate (AL, solid bars) or 1 mg/ml hyaluronic acid (HA, hatched bars) prior to surface inoculation (as described above in Methods) with either Group A Streptococcus (GAS, strain 950771), Group B Streptococcus (GBS, strain 515), Streptococcus pneumoniae (S. pneumo, type 6), or Staphylococcus aureus (S. aureus, type 8) at a multiplicity of infection of 10 bacteria per keratinocyte for 1 hour.

[2] = system: wild-type GAS, strain 950771; experiment: GAS translocation through polarized human keratinocyte monolayers; format: cell-based, Streptococcus pyogenes; settings: pre-treated 30 minutes with 2 mg/ml, compared to untreated monolayers
Description: Human keratinocytes were cultured on 3.0 μm filters to allow polarization and establishment of functional intercellular tight junctions. Cells were infected as described previously with wild-type GAS, strain 950771. To assess the ability of exogenously added HA to inhibit the translocation of GAS through the keratinocyte monolayer, cells were pre-treated for 30 minutes with either 2 mg/ml of hyaluronic acid (HA) or another acidic polysaccharide, alginate (AL), at the same concentration. Aliquots of media from the lower chamber of infected keratinocyte monolayers were cultured on blood agar plates at 1 and 2 hours after inoculation with bacteria to assess the number of translocating bacteria. […] In contrast only 20% and 25% of the wild-type bacteria were blocked by AL at 1 and 2 hours, respectively.
GAS strains were 950771, an M-type 3 strain originally isolated from a child with necrotizing fasciitis, and 188, an isogenic acapsular mutant derived from 950771 (Ashbaugh, C. D., et al., (1998) J. Clin. Invest. 102, 550-560). Bacteria were cultured in Todd Hewitt broth (Difco, Sparks, Md.) to early exponential phase. For preparation of polarized keratinocyte monolayers, human squamous cell carcinoma cell line, SCC13, derived from cheek epidermis (Cline, P. R. & Rice, R. H. (1983) Cancer Res. 43, 3203-3207) was cultured to confluence in serum-free keratinocyte medium (Gibco BRL, Rockville, Md.) supplemented with 50 μg/ml bovine pituitary extract, 0.1 ng/ml epidermal growth factor and 0.3 mM calcium chloride (c-SFM). Certain experiments were performed also using cell monolayers prepared from OKP7 primary human keratinocytes (Crowe et al. (1991) Differentiation 48, 199-208). Keratinocytes were seeded at 5×10^5 cells per well onto polycarbonate Transwell membrane supports (12-well plates, 3.0 μm pore size; Costar, Corning, N.Y.) and cultured for 6-10 days at 37° C. with 5% CO2 in c-SFM, with daily medium changes. Once confluent, the integrity of the monolayer was assessed routinely by measuring permeability to sodium fluorescein (Tchao, R. (1988) Alternative Methods in Toxicology (eds. Goldberg, A. M.) 271-283 (Ann Liebert, N.Y.) and, in some experiments, by measuring transepithelial electrical resistance (McNamara, B. P., et al. (2001) J Clin Invest 107, 621-9).
Keratinocyte monolayers on Transwells were inoculated with GAS at a multiplicity of infection of 10 per keratinocyte. Monolayers were incubated at 37° C. with 5% CO2. The keratinocyte medium in the upper chamber was replaced two hours after adding GAS, and the Transwell inserts containing the keratinocytes were moved to new wells containing fresh medium every 2 hours to prevent overgrowth of translocated bacteria. Translocation was assessed by quantitative cultures of medium from the lower chamber at 2 hour intervals.
As a model of the movement of GAS from the pharyngeal mucosa or skin surface into underlying tissue, GAS translocation was studied in vitro through keratinocyte monolayers. Two hours after inoculation onto the surface of a confluent keratinocyte monolayer, wild-type GAS was detected in the culture medium below the membrane support, indicating migration of the organisms through the monolayer. At each of several intervals after inoculation, approximately 20 to 100 times as many GAS were recovered below monolayers inoculated with wild-type GAS compared to those inoculated with the acapsular mutant strain.(Figure 12a). […] Compared to wild-type GAS strain 950771, the efficiency of translocation was similar for wild-type GAS strains 87-282, a highly encapsulated M-type 18 strain, and for DLS003, a poorly encapsulated M-type 3 strain. Translocation of wild-type GAS was reduced by 78% at 1 hour in experiments in which the keratinocyte monolayers were pretreated with monoclonal antibody IM7.8.1 to block interaction of the GAS capsule with CD44 . […]

hyaluronic acid
inhibition of translocation of GAS through skin equivalent (GAS): 91% | inhibition of binding [1]: more than 80% | blocking of translocating GAS ([2]; 1 hour after inoculation): 100% | blocking of translocating GAS ([2]; 2 hours after inoculation): 100%
